Laboratory results as given in the NIST ThermoML archive (doi:10.1016/j.jct.2017.11.004).
Several values for one entry are separate records, joined by “and”; a condition that tells them apart may be missing. Equal values may be shown once.

Conditions: Crystal, Rate of evaporation

[Ar] [argon]
Conditions	vapor or sublimation pressure
27.51 K	1.95e-09 kPa and 1.73e-09 kPa
28.01 K	3.29e-09 kPa and 3.3e-09 kPa
28.5 K	5.92e-09 kPa
28.51 K	5.83e-09 kPa
29 K	1.028e-08 kPa
29.01 K	1.035e-08 kPa
29.5 K	1.808e-08 kPa
29.51 K	1.812e-08 kPa
30 K	3.105e-08 kPa and 3.116e-08 kPa
30.49 K	5.189e-08 kPa
30.5 K	5.157e-08 kPa
30.99 K	8.27e-08 kPa
31 K	8.469e-08 kPa

O=C=O [carbon dioxide]
Conditions	vapor or sublimation pressure
80.03 K	7.21e-09 kPa
80.53 K	8.98e-09 kPa and 8.61e-09 kPa
81.03 K	1.11e-08 kPa and 1.252e-08 kPa
81.52 K	1.416e-08 kPa and 1.56e-08 kPa
82.02 K	1.819e-08 kPa and 1.911e-08 kPa
82.52 K	2.353e-08 kPa and 2.519e-08 kPa
83.02 K	2.981e-08 kPa and 3.328e-08 kPa
83.53 K	3.967e-08 kPa and 4.446e-08 kPa
84.03 K	5.272e-08 kPa and 5.947e-08 kPa
84.53 K	6.988e-08 kPa and 6.758e-08 kPa

[Kr] [krypton]
Conditions	vapor or sublimation pressure
38.5 K	1.68e-09 kPa and 1.86e-09 kPa
39 K	2.84e-09 kPa and 2.68e-09 kPa
39.49 K	4.01e-09 kPa
39.5 K	4.34e-09 kPa
39.99 K	6.3e-09 kPa
40 K	6.56e-09 kPa
40.49 K	9.97e-09 kPa and 9.68e-09 kPa
41 K	1.527e-08 kPa and 1.475e-08 kPa
41.5 K	2.312e-08 kPa and 2.262e-08 kPa
42 K	3.529e-08 kPa and 3.422e-08 kPa
42.5 K	5.406e-08 kPa
42.51 K	5.092e-08 kPa

[Ne] [neon]
Conditions	vapor or sublimation pressure [kPa]
8.004 K	2.98e-08
8.251 K	6.87e-08
8.502 K	1.633e-07
8.749 K	3.617e-07
8.792 K	4.482e-07
8.996 K	9.17e-07
9.046 K	9.212e-07
9.251 K	1.832e-06
9.468 K	2.529e-06
9.518 K	3.574e-06
9.727 K	5.097e-06
9.776 K	6.564e-06

N#N [nitrogen]
Conditions	vapor or sublimation pressure [kPa]
23.5 K	1.9e-10
23.51 K	1.5e-10
24 K	4e-10
24.5 K	8.2e-10
25 K	1.66e-09
25.49 K	3.24e-09
25.99 K	6.63e-09
26.48 K	1.287e-08
26.99 K	2.45e-08
27.48 K	3.89e-08

O=O [oxygen]
Conditions	vapor or sublimation pressure
28.99 K	1.81e-09 kPa
29.48 K	5.02e-09 kPa and 3.06e-09 kPa
29.98 K	5.64e-09 kPa
29.99 K	8.75e-09 kPa
30.47 K	1.01e-08 kPa and 1.531e-08 kPa
30.98 K	1.855e-08 kPa and 2.698e-08 kPa
31.48 K	3.339e-08 kPa and 4.84e-08 kPa
31.77 K	8.494e-08 kPa
31.98 K	5.894e-08 kPa
32.48 K	1.034e-07 kPa and 1.469e-07 kPa
32.98 K	1.632e-07 kPa

O [water]
Conditions	vapor or sublimation pressure
154.97 K	3.289e-08 kPa and 2.922e-08 kPa
155.96 K	4.124e-08 kPa
156.96 K	5.337e-08 kPa
156.97 K	6.144e-08 kPa
157.96 K	7.108e-08 kPa
158.97 K	9.378e-08 kPa
159.96 K	1.174e-07 kPa
159.98 K	1.185e-07 kPa
160.47 K	1.414e-07 kPa
160.96 K	1.421e-07 kPa
160.97 K	1.636e-07 kPa
161.47 K	1.872e-07 kPa

[Xe] [xenon]
Conditions	vapor or sublimation pressure
50.01 K	4.67e-10 kPa and 4.85e-10 kPa
51.02 K	1.113e-09 kPa and 1.049e-09 kPa
52.02 K	2.544e-09 kPa
52.52 K	2.776e-09 kPa and 3.083e-09 kPa
53.02 K	4.226e-09 kPa and 4.645e-09 kPa
53.52 K	5.796e-09 kPa and 5.947e-09 kPa
54.02 K	8.078e-09 kPa and 8.286e-09 kPa
54.52 K	1.126e-08 kPa and 1.15e-08 kPa
55.02 K	1.528e-08 kPa and 1.544e-08 kPa
55.52 K	2.113e-08 kPa
56.02 K	2.907e-08 kPa and 2.973e-08 kPa
56.52 K	3.938e-08 kPa
56.53 K	4.024e-08 kPa
57.03 K	5.416e-08 kPa and 5.32e-08 kPa
